In brackets after ≈: the same amount, converted by molar mass.

The test system of experiment [1] is C. albicans CAF2-1 strain. The experiment in a line: Anti-Candida activity, MIC measurement. Type of experiment: cell-based. To be noted: CAF21STRAIN, C. albicans CAF2-1, RPMI1640, 42-48 hours at 35° C., visual inspection, read-out: Anti-Candida Activity (minimum inhibitory concentration, MIC). As to the method:
(§1) For the C. albicans CAF2-1 strain, a fungal suspension from a standing culture for 48 hours at 30° C. in a Sabouraud dextrose liquid culture medium (SDB) was diluted with RPMI1640 medium to adjust a fungal suspension of 1.2×10^3 cells/mL. For the A. fumigatus Tsukuba strain, −80° C. stored strain was diluted with RPMI1640 medium to adjust to a fungal suspension of 4.5×10^3 cells/mL.
(§2) Using a U-bottomed 96 well plate, 8 samples/plate (A to H) of sample dilution solutions were prepared. On the 2nd to 12th rows were dispensed 10 μL of dimethyl sulfoxide solution. Weighted sample was dissolved in dimethyl sulfoxide to prepare a 2.5 mg/mL solution, 20 μL of this solution was added to the first row of the prepared plate, and 12 steps of two-fold step dilutions (10 μL of solution+10 μL of dimethyl sulfoxide solution) were performed on the plate. This sample dilution solution was dispensed in the amount of 1 μL to a flat-bottomed 96 well plate for MIC measurement to prepare a sample dilution plate.
(§3) The fungal suspension prepared in (1) was used in the amount of 99 μL/well to inoculate the flat-bottomed 96 well plate containing 1 μL/well of the test compound dilution prepared in (2), and a standing culture was carried out aerobically for 42-48 hours at 35° C.

For experiment [2], the system named is A. fumigatus Tsukuba strain. The experiment in a line: Anti-Aspergillus activity, MIC measurement. Type of experiment: cell-based. To be noted: RPMI1640, 42-48 hours at 35° C., visual inspection, read-out: Anti-Aspergillus Activity (minimum inhibitory concentration, MIC). As to the method:
as §1, §2, §3

For the molecule `Nc1ncccc1-c1cc(Cc2ccc(OCc3ccc(F)cc3)cc2)no1` [Example 7, 3-(3-(4-(4-Fluoro-benzyloxy)-benzyl)-isoxazol-5-yl)-pyridin-2-ylamine], the values for the MIC in experiment [1] and in experiment [2] were 1.56 µg/mL (≈ 4.16 µM) and 0.2 µg/mL (≈ 0.533 µM), respectively.

In the case of `Nc1ccc(-c2cc(Cc3ccc(OCc4ccc(Cl)cn4)cc3)no2)c(N)n1` [Example 122, 3-(3-(4-(5-Chloro-pyridin-2-ylmethoxy)-benzyl)-isoxazol-5-yl)-pyridin-2,6-diamine], the MIC in experiment [1] stood at 1.56 µg/mL (≈ 3.82 µM); in experiment [2] it was 0.78 µg/mL (≈ 1.91 µM).

In the case of `Nc1ncccc1-c1cc(Cc2ccc(Oc3ccccc3)nc2)no1` [Example 53, 3-(3-(6-Phenoxy-pyridin-3-ylmethyl)-isoxazol-5-yl)-pyridin-2-ylamine], the MIC in experiment [1] and in experiment [2] was 0.2 µg/mL (≈ 0.581 µM) each time.

Regarding `Nc1ccc(-c2cc(Cc3ccc(Br)cc3)no2)c(N)n1` [Example 220, 3-(3-(4-Bromo-benzyl)-isoxazol-5-yl)-pyridine-2,6-diamine], the MIC in experiment [1] and in experiment [2] was 6.25 µg/mL (≈ 18.1 µM) each time.

Consider `Nc1ncccc1-c1cc(Cc2ccc(OCc3cccc(F)c3)cc2)no1` [Example 6, 3-(3-(4-(3-Fluoro-benzyloxy)-benzyl)-isoxazol-5-yl)-pyridin-2-ylamine], for which the MIC in experiment [1] and in experiment [2] was 0.39 µg/mL (≈ 1.04 µM) throughout.

As to `Nc1ncccc1-c1cc(Cc2ccc(Oc3cccc(F)c3)nc2)no1` [Example 71, 3-(3-(6-(3-Fluoro-phenoxy)-pyridin-3-ylmethyl)-isoxazol-5-yl)-pyridin-2-ylamine], the MIC in experiment [1] amounted to 0.2 µg/mL (≈ 0.552 µM); in experiment [2], 0.39 µg/mL (≈ 1.08 µM).

Regarding `COC(=O)c1cccc(COc2ccc(Cc3cc(-c4ccc(N)nc4N)on3)cc2)c1` [Example 213, 3-(4-(5-(2,6-Diamino-pyridin-3-yl)-isoxazol-3-ylmethyl)-phenoxymethyl)benzoic acid methyl ester], the MIC came to 6.25 µg/mL (≈ 14.5 µM) in experiment [1] and 1.56 µg/mL (≈ 3.62 µM) in experiment [2].

`Nc1ncccc1-c1cc(Cc2cccc(-c3ccccc3)c2)no1` [Example 85, 3-(3-Biphenyl-3-ylmethyl-isoxazol-5-yl)-pyridin-2-ylamine]: the MIC in experiment [1] turned out to be 1.56 µg/mL (≈ 4.77 µM); in experiment [2] it was 3.13 µg/mL (≈ 9.56 µM).

For `Nc1ccc(-c2cc(Cc3ccc(Oc4ccc(F)cc4)cc3)no2)c(N)n1` [Example 141, 3-(3-(4-(4-Fluoro-phenoxy)-benzyl)-isoxazol-5-yl)-pyridin-2,6-diamine], the MIC in experiment [1] was determined as 0.39 µg/mL (≈ 1.04 µM); in experiment [2], 0.2 µg/mL (≈ 0.531 µM).

Regarding `Nc1ncccc1-c1cc(Cc2ccc(Oc3ccccc3F)cc2)no1` [Example 83], the MIC in experiment [1] and in experiment [2] was 0.2 µg/mL (≈ 0.553 µM) throughout.

Turning to `Cc1ccc(COc2ccc(Cc3cc(-c4ccc(N)nc4N)on3)cc2)nc1` [Example 101], the MIC in experiment [1] and in experiment [2] was 1.56 µg/mL (≈ 4.03 µM) each time.

On to `Nc1ccc(-c2cc(Cc3ccc(OCc4ccc(F)c(F)c4)nc3)no2)c(N)n1` [Example 152, 3-(3-(6-(3,4-Difluoro-benzyloxy)-pyridin-3-ylmethyl)-isoxazol-5-yl)-pyridin-2,6-diamine], for which the MIC amounted to 0.78 µg/mL (≈ 1.91 µM) in experiment [1] and 0.39 µg/mL (≈ 0.953 µM) in experiment [2].

`Nc1ccc(-c2cc(Cc3cccc(-c4ccccn4)c3)no2)c(N)n1` [Example 146, 3-(3-(3-Pyridin-2-yl-benzyl)-isoxazol-5-yl)-pyridin-2,6-diamine]: the MIC in experiment [1] is 6.25 µg/mL (≈ 18.2 µM); in experiment [2], over 25 µg/mL.

Take `Nc1ccc(-c2cc(Cc3ccc(OCc4ccccn4)cc3)no2)c(N)n1` [Example 22, 3-(3-(4-(Pyridin-2-ylmethoxy)-benzyl)-isoxazol-5-yl)-pyridin-2,6-diamine]: the MIC in experiment [1] is 0.2 µg/mL (≈ 0.536 µM); in experiment [2], 0.39 µg/mL (≈ 1.04 µM).

`Nc1ncccc1-c1cc(Cc2ccc(Oc3ccc(F)cc3)nc2)no1` [Example 75, 3-(3-(6-(4-Fluoro-phenoxy)-pyridin-3-ylmethyl)-isoxazol-5-yl)-pyridin-2-ylamine]: the figures for the MIC in experiment [1] and in experiment [2] were 0.78 µg/mL (≈ 2.15 µM) and 0.2 µg/mL (≈ 0.552 µM), respectively.

As to `Nc1ccc(-c2cc(Cc3ccc(OC4CCCC4)cc3)no2)c(N)n1` [Example 137, 3-(3-(4-Cyclopentyloxy-benzyl)-isoxazol-5-yl)-pyridin-2,6-diamine], the MIC in experiment [1] was found to be 0.78 µg/mL (≈ 2.23 µM); in experiment [2], 1.56 µg/mL (≈ 4.45 µM).

For `Nc1ccc(-c2cc(Cc3ccc(OCc4cc(Cl)ccn4)cc3)no2)cn1` [Example 183, 5-(3-(4-(4-Chloro-pyridin-2-ylmethoxy)-benzyl)-isoxazol-5-yl)-pyridin-2-ylamine], the MIC in experiment [1] came to 0.2 µg/mL (≈ 0.509 µM); in experiment [2], 0.78 µg/mL (≈ 1.99 µM).

In the case of `Nc1ccc(-c2cc(Cc3ccc(OC4CCCCC4)cc3)no2)c(N)n1` [Example 139, 3-(3-(4-Cyclohexyloxy-benzyl)-isoxazol-5-yl)-pyridin-2,6-diamine], the MIC was 1.56 µg/mL (≈ 4.28 µM) in experiment [1] and over 25 µg/mL in experiment [2].

As to `Nc1ccc(-c2cc(Cc3ccc(OCc4ccccc4)cn3)no2)c(N)n1` [Example 127, 3-(3-(5-Benzyloxy-pyridin-2-ylmethyl)-isoxazol-5-yl)-pyridin-2,6-diamine], the results for the MIC in experiment [1] and in experiment [2] were 0.78 µg/mL (≈ 2.09 µM) and 1.56 µg/mL (≈ 4.18 µM), respectively.

In the case of `Nc1ncccc1-c1cc(Cc2ccc(COc3cc(F)ccn3)cc2)no1` [Example 59, 3-(3-(4-(4-Fluoro-pyridin-2-yloxymethyl)-benzyl)-isoxazol-5-yl)-pyridin-2-ylamine], the MIC in experiment [1] and in experiment [2] was 0.39 µg/mL (≈ 1.04 µM) in each case.

Turning to `Cc1nc(N)ccc1-c1cc(Cc2ccc(OCc3ccccc3)cc2)no1` [Example 188, 5-(3-(4-Benzyloxy-benzyl)-isoxazol-5-yl)-6-methyl-pyridin-2-ylamine], the figures for the MIC in experiment [1] and in experiment [2] were 1.56 µg/mL (≈ 4.2 µM) and 0.78 µg/mL (≈ 2.1 µM), respectively.

For the molecule `CCCCOCc1ccc(Cc2cc(-c3cccnc3N)on2)cc1` [Example 4, 3-(3-(4-Butoxymethyl-benzyl)-isoxazol-5-yl)-pyridin-2-ylamine], the MIC stood at 0.2 µg/mL (≈ 0.593 µM) in experiment [1] and 0.39 µg/mL (≈ 1.16 µM) in experiment [2].

As for `Nc1ncccc1-c1cc(Cc2ccc(OCc3ccncc3)cc2)no1` [Example 49, 3-(3-(4-(Pyridin-4-ylmethoxy)-benzyl)-isoxazol-5-yl)-pyridin-2-ylamine], the MIC worked out at 0.05 µg/mL (≈ 0.14 µM) in experiment [1] and 0.39 µg/mL (≈ 1.09 µM) in experiment [2].

As for `Nc1ccc(-c2cc(Cc3ccc(Cc4ccccc4)nc3)no2)c(N)n1` [Example 223, 3-(3-(6-Benzyl-pyridin-3-ylmethyl)-isoxazol-5-yl)-pyridin-2,6-diamine], the MIC in experiment [1] and in experiment [2] was 0.39 µg/mL (≈ 1.09 µM) each time.

With `Nc1ccc(-c2cc(Cc3ccc(Cc4ccc(F)cc4)o3)no2)c(N)n1` [Example 221, 3-(3-(5-(4-Fluoro-benzyl)-furan-2-ylmethyl)-isoxazol-5-yl)-pyridin-2,6-diamine], the MIC in experiment [1] was determined as 1.56 µg/mL (≈ 4.28 µM); in experiment [2], 0.39 µg/mL (≈ 1.07 µM).

Turning to `Nc1ncccc1-c1cc(Cc2cccc(OCc3ccccn3)c2)no1` [Example 60, 3-(3-(3-(Pyridin-2-ylmethoxy)-benzyl)-isoxazol-5-yl)-pyridin-2-ylamine], the MIC in experiment [1] stood at 0.2 µg/mL (≈ 0.558 µM); in experiment [2], 1.56 µg/mL (≈ 4.35 µM).

In the case of `CCCCOc1ccc(Cc2cc(-c3ccc(N)nc3N)on2)cc1` [Example 126, 3-(3-(4-Butoxy-benzyl)-isoxazol-5-yl)-pyridin-2,6-diamine], the MIC in experiment [1] was found to be 1.56 µg/mL (≈ 4.61 µM); in experiment [2], 0.39 µg/mL (≈ 1.15 µM).

On to `Nc1ncccc1-c1cc(Cc2cccc(OCC3CC3)c2)no1` [Example 66, 3-(3-(3-Cyclopropylmethoxy-benzyl)-isoxazol-5-yl)-pyridin-2-ylamine], for which the results for the MIC in experiment [1] and in experiment [2] were 0.1 µg/mL (≈ 0.311 µM) and 0.78 µg/mL (≈ 2.43 µM), respectively.

Turning to `Nc1ccc(-c2cc(Cc3ccc(OCc4cccc(F)c4)cc3)no2)c(N)n1` [Example 19, 3-(3-(4-(3-Fluoro-benzyloxy)-benzyl)-isoxazol-5-yl)-pyridin-2,6-diamine], the figures for the MIC in experiment [1] and in experiment [2] were 0.78 µg/mL (≈ 2 µM) and 0.39 µg/mL (≈ 0.999 µM), respectively.

On to `Nc1ncccc1-c1cc(Cc2ccc(Oc3cccnc3)cc2)no1` [Example 76, 3-(3-(4-(Pyridin-3-yloxy)-benzyl)-isoxazol-5-yl)-pyridin-2-ylamine], for which the MIC in experiment [1] and in experiment [2] was 1.56 µg/mL (≈ 4.53 µM) each time.

In the case of `Cc1ccc(Cc2ccc(Cc3cc(-c4cccnc4N)on3)s2)cc1` [Example 92, 3-(3-(5-(4-Methyl-benzyl)-thiophen-2-ylmethyl)-isoxazol-5-yl)-pyridin-2-ylamine], the MIC in experiment [1] and in experiment [2] was 0.39 µg/mL (≈ 1.08 µM) in each case.

Take `Nc1ccc(-c2cc(Cc3ccc(Cc4ccc(Cl)o4)cc3)no2)cn1` [Example 182, 5-(3-(4-(5-Chloro-furan-2-ylmethyl)-benzyl)-isoxazol-5-yl)-pyridin-2-ylamine]: the MIC in experiment [1] was over 25 µg/mL; in experiment [2], 0.2 µg/mL (≈ 0.547 µM).

Turning to `Nc1ccc(-c2cc(Cc3ccc(COc4ccccn4)nc3)no2)c(N)n1` [Example 154], the figures for the MIC in experiment [1] and in experiment [2] were 0.78 µg/mL (≈ 2.08 µM) and 1.56 µg/mL (≈ 4.17 µM), respectively.

Take `Cc1ccc(Oc2ccc(Cc3cc(-c4ccc(N)nc4N)on3)s2)cc1` [Example 106, 3-(3-(5-p-Tolyloxy-thiophen-2-ylmethyl)-isoxazol-5-yl)-pyridin-2,6-diamine]: the figures for the MIC in experiment [1] and in experiment [2] were 0.78 µg/mL (≈ 2.06 µM) and 0.2 µg/mL (≈ 0.528 µM), respectively.

Take `Nc1ncccc1-c1cc(Cc2ccc(Cc3ccc(F)cc3)o2)no1` [Example 208, 3-(3-(5-(4-Fluoro-benzyl)-furan-2-ylmethyl)-isoxazol-5-yl)-pyridin-2-ylamine]: the MIC in experiment [1] turned out to be 6.25 µg/mL (≈ 17.9 µM); in experiment [2], 0.78 µg/mL (≈ 2.23 µM).

For the origin of these results see patent US8158657B2, “Heterocycles substituted pyridine derivatives and antifungal agent containing thereof” (Eisai R&D Management Co., Ltd., priority 2005, dated 2012).
